Assay results: ChEMBL document CHEMBL1201862, “PubChem BioAssay data set” (2004)
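Tested at 5 concentrations; 48 h exposure; 96-well plates; endpoints linearly interpolated, else capped at highest concentration. GI50 = concentration required for 50% inhibition of growth.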 Active and inactive are the calls of the source. Rule as the data show it: active = GI50 up to about 1.1 µM and inactive = higher.

Tests used:
Assay in all cases: growth of human tumour cells (NCI), 48 h
HOP-62 = system: HOP-62
OVCAR-8 = system: OVCAR-8
KM12 = system: KM12
SK-MEL-28 = system: SK-MEL-28
HCC 2998 = system: HCC 2998
A498 = system: A498
EKVX = system: EKVX
UACC-62 = system: UACC-62
HT-29 = system: HT-29
IGROV-1 = system: IGROV-1
CAKI-1 = system: CAKI-1
UO-31 = system: UO-31
NCI-H522 = system: NCI-H522
U-251 = system: U-251
BT-549 = system: BT-549
OVCAR-4 = system: OVCAR-4
UACC-257 = system: UACC-257
NCI/ADR-RES = system: NCI/ADR-RES
NCI-H226 = system: NCI-H226
HOP-92 = system: HOP-92
MDA-N = system: MDA-N
T47D = system: T47D
M14 = system: M14
SN12C = system: SN12C
SF-295 = system: SF-295
A549 = system: A549
SR = system: SR
DU-145 = system: DU-145
RPMI-8226 = system: RPMI-8226
MDA-MB-231 = system: MDA-MB-231
PC-3 = system: PC-3
SK-OV-3 = system: SK-OV-3
MDA-MB-435 = system: MDA-MB-435
CCRF-CEM = system: CCRF-CEM
NCI-H23 = system: NCI-H23
TK-10 = system: TK-10
786-0 = system: 786-0
OVCAR-3 = system: OVCAR-3
SK-MEL-5 = system: SK-MEL-5
ACHN = system: ACHN
MOLT-4 = system: MOLT-4
MCF7 = system: MCF7
HCT-15 = system: HCT-15
SW-620 = system: SW-620
SNB-19 = system: SNB-19
HL-60 = system: HL-60
SK-MEL-2 = system: SK-MEL-2
LOX IMVI = system: LOX IMVI
OVCAR-5 = system: OVCAR-5
COLO 205 = system: COLO 205
HCT-116 = system: HCT-116
SF-539 = system: SF-539
NCI-H460 = system: NCI-H460
Hs-578T = system: Hs-578T
SF-268 = system: SF-268
Malme-3M = system: Malme-3M
K562 = system: K562
RXF 393 = system: RXF 393
SNB-75 = system: SNB-75

Measured: GI50

COC(=O)Nc1cc(OCCCOC(C)=O)c2[nH]c(C(=O)OC)cc2c1C[C@H](O)CO
inactive: HOP-62 > 100 µM | OVCAR-8 > 100 µM | KM12 > 100 µM | SK-MEL-28 > 100 µM | HCC 2998 > 100 µM | A498 > 100 µM | EKVX 72.1 µM | UACC-62 > 100 µM | HT-29 > 100 µM | IGROV-1 90.4 µM | CAKI-1 > 100 µM | UO-31 > 100 µM | NCI-H522 2.94 µM | U-251 > 100 µM | BT-549 54.7 µM | OVCAR-4 > 100 µM | UACC-257 > 100 µM | NCI/ADR-RES > 100 µM | NCI-H226 > 100 µM | HOP-92 11.1 µM | MDA-N > 100 µM | T47D > 100 µM | M14 > 100 µM | SN12C > 100 µM | SF-295 > 100 µM | A549 > 100 µM | SR > 100 µM | DU-145 > 100 µM | RPMI-8226 > 100 µM | MDA-MB-231 > 100 µM | PC-3 > 100 µM | SK-OV-3 > 100 µM | MDA-MB-435 > 100 µM | CCRF-CEM > 100 µM | NCI-H23 > 100 µM | TK-10 > 100 µM | 786-0 > 100 µM | OVCAR-3 > 100 µM | SK-MEL-5 > 100 µM | ACHN > 100 µM | MOLT-4 > 100 µM | MCF7 > 100 µM | SW-620 > 100 µM | SNB-19 > 100 µM | HL-60 > 100 µM | SK-MEL-2 > 100 µM | LOX IMVI > 100 µM | OVCAR-5 > 100 µM | COLO 205 > 100 µM | HCT-116 > 100 µM | SF-539 > 100 µM
> 100 µM: HCT-15

COc1cc(OC)c2nc(C)c(CCCl)c(Cl)c2c1
inactive: HOP-62 > 100 µM | OVCAR-8 > 100 µM | KM12 > 100 µM | SK-MEL-28 > 100 µM | HCC 2998 > 100 µM | A498 > 100 µM | EKVX > 100 µM | UACC-62 > 100 µM | HT-29 > 100 µM | IGROV-1 > 100 µM | NCI-H460 > 100 µM | Hs-578T > 100 µM | SF-268 > 100 µM | CAKI-1 > 100 µM | UO-31 > 100 µM | NCI-H522 > 100 µM | U-251 > 100 µM | Malme-3M > 100 µM | K562 > 100 µM | BT-549 > 100 µM | OVCAR-4 > 100 µM | UACC-257 > 100 µM | NCI/ADR-RES > 100 µM | RXF 393 > 100 µM | NCI-H226 > 100 µM | MDA-N > 100 µM | M14 > 100 µM | SN12C > 100 µM | SF-295 > 100 µM | A549 > 100 µM | SNB-75 > 100 µM | SR > 100 µM | DU-145 > 100 µM | RPMI-8226 > 100 µM | MDA-MB-231 > 100 µM | PC-3 > 100 µM | SK-OV-3 > 100 µM | MDA-MB-435 > 100 µM | CCRF-CEM > 100 µM | NCI-H23 > 100 µM | TK-10 > 100 µM | 786-0 > 100 µM | OVCAR-3 > 100 µM | SK-MEL-5 > 10 µM | ACHN > 100 µM | MOLT-4 > 100 µM | MCF7 > 100 µM | SW-620 > 100 µM | SNB-19 > 100 µM | HL-60 > 100 µM | SK-MEL-2 > 100 µM | LOX IMVI > 100 µM | OVCAR-5 > 100 µM | COLO 205 > 100 µM | HCT-116 > 100 µM | SF-539 > 100 µM
> 100 µM: HCT-15

O=[N+]([O-])c1ccc(-c2ccc([C@H]3CC(c4cc(F)c(Cl)cc4Cl)=NN3)o2)cc1
active: KM12 0.625 µM | NCI-H460 0.435 µM | SR 0.621 µM | CCRF-CEM 1.06 µM | HL-60 1.06 µM
1.52 µM: HCT-15
inactive: HOP-62 17 µM | OVCAR-8 10.8 µM | HCC 2998 14.3 µM | A498 35.5 µM | EKVX > 100 µM | UACC-62 21.3 µM | HT-29 37.4 µM | IGROV-1 38.7 µM | Hs-578T > 100 µM | SF-268 19.1 µM | CAKI-1 25.9 µM | UO-31 69.3 µM | NCI-H522 16.6 µM | Malme-3M 19.2 µM | K562 22.9 µM | BT-549 25.4 µM | OVCAR-4 40.2 µM | UACC-257 49.4 µM | NCI/ADR-RES 21.6 µM | RXF 393 39.2 µM | NCI-H226 21.9 µM | HOP-92 26.6 µM | MDA-N 36.1 µM | T47D 5.48 µM | M14 13.3 µM | SN12C 24.3 µM | SF-295 44.2 µM | SNB-75 15.1 µM | DU-145 26.9 µM | RPMI-8226 20.9 µM | SK-OV-3 39.2 µM | MDA-MB-435 26.7 µM | NCI-H23 2.3 µM | TK-10 31.8 µM | 786-0 23.7 µM | OVCAR-3 45.2 µM | SK-MEL-5 7.83 µM | ACHN 32.1 µM | MOLT-4 1.95 µM | MCF7 16.7 µM | SW-620 23.6 µM | SNB-19 > 100 µM | LOX IMVI 3.63 µM | OVCAR-5 > 100 µM | HCT-116 29.6 µM | SF-539 5.38 µM

c1ccc2c(-c3csc(-c4c[nH]c5ccccc45)n3)c[nH]c2c1
inactive: HOP-62 56.4 µM | OVCAR-8 > 100 µM | KM12 14.9 µM | SK-MEL-28 > 100 µM | HCC 2998 > 100 µM | A498 > 100 µM | EKVX > 100 µM | UACC-62 > 100 µM | HT-29 39.4 µM | IGROV-1 > 28.5 µM | NCI-H460 > 53.7 µM | Hs-578T 61.1 µM | SF-268 > 100 µM | CAKI-1 > 100 µM | UO-31 > 48.1 µM | U-251 > 90.6 µM | Malme-3M > 100 µM | K562 3.37 µM | BT-549 > 100 µM | OVCAR-4 > 100 µM | UACC-257 > 100 µM | NCI/ADR-RES > 100 µM | RXF 393 > 100 µM | NCI-H226 > 100 µM | HOP-92 > 100 µM | MDA-N 49 µM | M14 > 100 µM | SN12C > 100 µM | SF-295 15.4 µM | A549 96.8 µM | SNB-75 > 22.4 µM | SR 2.93 µM | DU-145 > 76.7 µM | MDA-MB-231 > 67.8 µM | PC-3 > 100 µM | SK-OV-3 > 44.8 µM | MDA-MB-435 35.8 µM | NCI-H23 > 100 µM | TK-10 63.8 µM | 786-0 > 65 µM | OVCAR-3 > 100 µM | ACHN > 100 µM | MOLT-4 4.86 µM | MCF7 > 52.1 µM | SW-620 > 100 µM | SNB-19 > 89.7 µM | HL-60 14.4 µM | SK-MEL-2 > 100 µM | LOX IMVI 21.8 µM | OVCAR-5 > 51.9 µM | HCT-116 > 48.8 µM | SF-539 > 100 µM
> 100 µM: HCT-15
